According to US8889902B2, “Acetylsalicylic acid salts” (priority 2009, dated 2014):
Several values for one entry are separate records, joined by “and”; a condition that tells them apart may be missing. Identical values can stand only once. Marks after values point to notes of the source that are not given here.

Key:
[1] = tested on: abdominal constrictions in writhing test model; assay: Mouse writhing test (acetic acid i.p.); assay type: in vivo, mice; conditions: for No. of constrictions: 10 min observation
Experimental: In investigating the analgesic, anti-inflammatory and antipyretic effects of MASA methods widely used in evaluation of NSAIDs were employed. Mongrel white laboratory mice and Wistar rats were used in experiments. Animals were kept in groups of 7-8 in adequate cages in climatized rooms at 22±1° C., relative humidity 60±5% and 12/12-hour light/darkness cycle with free access to feed and water.
Aqueous solutions of test substances were prepared ex tempore. In each experimental series a control group was used that received an identical volume of water p.o.
Nociceptive reaction was evaluated by chemical irritation method—writhing test (Charaborty A et al, Indian J of Pharmacology 2004; 36(3):148-150). Animals received i.p. 0.25 ml of 0.75% aqueous acetic acid solution: After the injection animals were placed separately in special boxes and observed for 10 minutes. The number of abdominal constrictions was registered. Analgesic activity was manifested by reduction of the number of abdominal constrictions in the 10 minutes period. Test substances were introduced 30 min before the irritating agent. The level of analgesia was expressed as analgesic index calculated as follows: A=(Cc−Ct)/Cc·100%, where A—Analgesic index Cc—number of contractions in control group, Ct—number of contractions in the test group.

[2] = tested on: response to thermal irritation (hot plate); assay: Mouse hot plate test; assay type: in vivo, mice
[3] = tested on: hyperthermia induced by intramuscular injection of pyrogenal; assay: Antipyretic activity, pyrogenal hyperthermia (curative mode); assay type: in vivo, rats
Experimental: The antipyretic effect of test substances in therapeutic (curative) mode was investigated on 48 rats with body mass 182-205 g, with hyperthermia induction by injecting pyrogenal in dose 100 μg (Shwarz G Y, Syubaev R D, Vedomosti NCEG lekarstvennyh sredstv MZ RF 2000; 1:44-50 (Rus). Test substances were given p.o. 2 hours after injection of pyrogenal immediately after the recording of elevated body temperature. Rectal temperature was measured by electric thermometer TERMO before the i.m. injection of pyrogenal (baseline temperature), at the peak of hyperthermia (pyrogenal control) and 30 min. after treatment with test substance, i.e., 2½ hours after the injection of pyrogenal. Ambient temperature in laboratory was kept at 20-22° C.

carrageneen paw oedema = assay: Carrageneen oedema, preventive mode; assay type: in vivo, rats; conditions: preventive 6 times, 4 h
Experimental: The […] oedema was investigated by established method ([…], Patol Fiziol Eksp Ter, 2002(2):24-7 (Rus) on 42 rats with body mass of 178-220 g: […] The prevention index was calculated as indicated in previous section.

[4] = tested on: adjuvant arthritis induced by Freund's adjuvant; assay: Adjuvant arthritis: paw volume and ankle joint; assay type: in vivo, Wistar rats; conditions: for Prevention %, paw volume Day 14 / Prevention %, paw volume Day 28: vs AdA
Excerpt: Our experiments were scheduled to test the influence of MASA on the progress of adjuvant arthritis in comparison with MD and ASA. […] Each standard cage housed 7 rats with unlimited access to drinking water and granulated standard feed. […] All efforts were made to minimize animal suffering and to reduce the number of animals used. A modified standard procedure for inducting and evaluating the progress of chronic adjuvant arthritis was used (Bellavite P, Ortolani R, Conforti A, Immunology and Homeopathy. 3. Experimental Studies on Animal Models, Advance Access Publication 2.05, 2006, 171-186). […] The solutions of test substances were prepared ex tempore. […] Test solutions were introduced to animal p.o. by catheter into the stomach. […] The effects of test substances were evaluated using the following criteria: The oedema, i.e. the volume of hind paw was measured by oncometer. The percentage of prevention (inhibition of oedema) was calculated according to formula: P(%)=(Vc−Vt)/Vc×100, where Vc—paw volume in control group Vt—paw volume in test group P—Prevention in % (inhibition of oedema).

[5] = tested on: serum lipid levels (C, HDL, LDL, TG); assay: Acute hyperlipidemia model (Triton WR1339); assay type: in vivo, Wistar rats; conditions: TR 250 mg/kg, serum 24 h
Experimental: Male Wistar rats with body mass of 250-270 g were used. Animals were held in groups of 6-8 in climatized rooms at 22±1° C., relative humidity 60±5%, and 12/12-hour light/dark cycle with free access to water and feed. […] The solution of test substances or water was introduced to control and TR group animals p.o. one hour before and 20 hours after the introduction of TR as described below.
Blood for biochemical analysis was collected on the next day (24 hours after the injection of TR) by heart punction under ether narcosis. Serum was separated by centrifugation and analyzed for total cholesterol, HDL, LDL and TG levels by commercial kits.

rat ear skin temperature = assay: Ear skin temperature rise caused by NA, s.c. administration; assay type: in vivo, Wistar rats; conditions: 45 mg/kg s.c. alone
Experimental: Male Wistar rats (280-330 g) were used. Animals were held in groups of 6 in climatized rooms at 22±1° C., relative humidity 60±5%, and 12/12-hour light/dark cycle with free access to drinking water and feed (R3—Lactamin AB, Sweden). For registration of changes in skin temperature of intact rats contactless temperature recording method was used (Papaliodis D et al, Br J Pharmacol 2008; 153:1382-1387). Temperature measurements were performed with a hand-held infrared thermometer (Model Proscan 510, TFA-Dostman). Animals were habituated to handling and to the infrared probe for 3 days before use. Temperature readings from the dorsal side of each ear were recorded without anaesthesia at beginning and during experiment. The ear temperature was measured every 5 min. for a period of up to 60 min. The animals were returned to their cages between measurements. NA, MD and MASA were dissolved in saline and pH was corrected immediately before usage. LA (MK 0524, Cayman Chemicals) was first dissolved in DMSO and then freshly diluted with 0.9% NaCl, on each day of the experiment. The rate of NA and LA combination was based on Summary of Product Characteristics for Tredaptive™ (nicotinic acid/laropiprant) 1000 mg/20 mg modified-release tablets.
The influence of LA, MD or MASA alone on skin temperature was checked. Each investigated compound was introduced s.c. simultaneously with NA as LA+NA [0] or 30 min in advance to NA as LA+NA [30].

CC(=O)Oc1ccccc1C(=O)[O-].C[N+](C)(C)NCCC(=O)O [MASA, 3-(trimethylammonioamino)propanoate Acetylsalicylic Acid Addition Salt]
Analgesic index ([1]; 75 mg/kg p.o.): 4.5 | Animals with positive reaction/total number ([1]; 75 mg/kg p.o. 30 min before acetic acid): 8/8 | No. of constrictions ([1]; 75 mg/kg p.o.): 12.13 ± 0.61**^$$ | Analgesic index ([1]; 150 mg/kg p.o.): 5.2 | Animals with positive reaction/total number ([1]; 150 mg/kg p.o. 30 min before acetic acid): 7/8 | No. of constrictions ([1]; 150 mg/kg p.o.): 10.63 ± 1.10**^$$ | Analgesic index ([1]; 300 mg/kg p.o.): 7.3 | Animals with positive reaction/total number ([1]; 300 mg/kg p.o. 30 min before acetic acid): 5/8 | No. of constrictions ([1]; 300 mg/kg p.o.): 6.00 ± 1.39***^$$$ | Latent period at 30 min after introduction of test substance ([2]; 75 mg/kg p.o.): 5.4 ± 0.38 s | Latent period at 60 min after introduction of test substance ([2]; 75 mg/kg p.o.): 4.6 ± 0.26 s | Latent period at 30 min after introduction of test substance ([2]; 150 mg/kg p.o.): 9.5 ± 0.53***^&&& s | Latent period at 60 min after introduction of test substance ([2]; 150 mg/kg p.o.): 7.1 ± 0.55 s | Latent period at 30 min after introduction of test substance ([2]; 300 mg/kg p.o.): 9.6 ± 1.12**^& s | Latent period at 60 min after introduction of test substance ([2]; 300 mg/kg p.o.): 8.6 ± 0.60 s | Rectal temperature at 30 minutes after treatment ([3]; 75 mg/kg p.o. 2 h after pyrogenal): 36.90 ± 0.07 °C | Rectal temperature at 30 minutes after treatment ([3]; 150 mg/kg p.o. 2 h after pyrogenal): 36.75 ± 0.09^#$ ° C. | Rectal temperature at 30 minutes after treatment ([3]; 300 mg/kg p.o. 2 h after pyrogenal): 36.40 ± 0.11*^$$% ° C. | Reduction in % (oedema) (carrageneen paw oedema; 150 mg/kg p.o.): 94% | Volume of paw after injection of carrageneen (carrageneen paw oedema; 150 mg/kg p.o.): 1.40 ± 0.09**^$ ml | Reduction in % (oedema) (carrageneen paw oedema; 300 mg/kg p.o.): 86% | Volume of paw after injection of carrageneen (carrageneen paw oedema; 300 mg/kg p.o.): 1.41 ± 0.04**^$ ml | Dimensions of ankle joint on Day 14 ([4]; 25 mg/kg daily p.o.): 7.0 ± 0.14 mm | Dimensions of ankle joint on Day 28 ([4]; 25 mg/kg daily p.o.): 6.7 ± 0.15 mm | Paw volume on Day 14 ([4]; 25 mg/kg daily p.o.): 2.20 ± 0.21 mL | Paw volume on Day 28 ([4]; 25 mg/kg daily p.o.): 1.32 ± 0.12^#&&$ ml | Prevention %, paw volume Day 14 ([4]; 25 mg/kg daily p.o.): 9% | Prevention %, paw volume Day 28 ([4]; 25 mg/kg daily p.o.): 41% | Dimensions of ankle joint on Day 14 ([4]; 100 mg/kg daily p.o.): 7.0 ± 0.13 mm | Dimensions of ankle joint on Day 28 ([4]; 100 mg/kg daily p.o.): 6.6 ± 0.16^#@$ mm | Paw volume on Day 14 ([4]; 100 mg/kg daily p.o.): 2.07 ± 0.17^& ml | Paw volume on Day 28 ([4]; 100 mg/kg daily p.o.): 1.22 ± 0.08^#&&&@$ ml | Prevention %, paw volume Day 14 ([4]; 100 mg/kg daily p.o.): 15% | Prevention %, paw volume Day 28 ([4]; 100 mg/kg daily p.o.): 45% | Dimensions of ankle joint on Day 14 ([4]; 200 mg/kg daily p.o.): 6.8 ± 0.10^#& mm | Dimensions of ankle joint on Day 28 ([4]; 200 mg/kg daily p.o.): 6.9 ± 0.11 mm | Paw volume on Day 14 ([4]; 200 mg/kg daily p.o.): 2.13 ± 0.11^& ml | Paw volume on Day 28 ([4]; 200 mg/kg daily p.o.): 1.7 ± 0.09^#&@ ml | Prevention %, paw volume Day 14 ([4]; 200 mg/kg daily p.o.): 12% | Prevention %, paw volume Day 28 ([4]; 200 mg/kg daily p.o.): 24% | C ([5]; 75 mg/kg p.o.): 341.9 ± 16.3 mg/dL | HDL ([5]; 75 mg/kg p.o.): 68.1 ± 8.7 mg/dL | LDL ([5]; 75 mg/kg p.o.): 270.1 ± 12.8 mg/dL | TG ([5]; 75 mg/kg p.o.): 861 ± 105.7 mg/dL | C ([5]; 150 mg/kg p.o.): 249.6 ± 22.2**^$& mg/dl and 249.6 ± 22.2**^$ mg/dl and 249.6 ± 22.2**^& mg/dl | HDL ([5]; 150 mg/kg p.o.): 58.2 ± 8.1 mg/dL | LDL ([5]; 150 mg/kg p.o.): 182.4 ± 19.6**^$& mg/dl and 182.4 ± 19.6**^$ mg/dl and 182.4 ± 19.6**^& mg/dl | TG ([5]; 150 mg/kg p.o.): 668 ± 104.4**^$& mg/dl and 668 ± 70.9**^$ mg/dl and 668 ± 70.9**^& mg/dl | C ([5]; 300 mg/kg p.o.): 219.0 ± 16.7**^$#& mg/dl | HDL ([5]; 300 mg/kg p.o.): 56.3 ± 8.6 mg/dL | LDL ([5]; 300 mg/kg p.o.): 158.6 ± 19.4**^$#& mg/dl | TG ([5]; 300 mg/kg p.o.): 548 ± 73.2***^&$# mg/dl | Maximum temperature (rat ear skin temperature): 29.2 ± 0.38^$$$ ° C.
